Assay results reported in ChEMBL document CHEMBL6092217 (Eur J Med Chem, 2024).
Activity calls are given as the source filed them. The rule behind the calls is not given here.

What was measured:
RKO = assay: Antiproliferative activity against human RKO cells assessed as cell viability incubated for 72 hrs by MTT assay; format: functional, cell-based
[1] = Resistance index, ratio of IC50 for human A549/TxR cells to IC50 for human A549 cells; format: functional
Tubulin (Homo sapiens) [2] = biological target: T1, Tubulin (Homo sapiens) (UniProt P68371+Q9H4B7+P0DPH7+P68366+Q13509+Q71U36+P04350+Q3ZCM7+P07437+P68363+Q9BQE3+Q6PEY2+Q13885+Q9BVA1+Q9BUF5); assay: Binding affinity to Tubulin colchicine binding site in human HT-29 cells assessed as inhibition of EBI-beta-tubulin adduct formation at 1 to 100 uM preincubated with compound for 2 hrs followed by EBI addition measured after 1.5 hrs by EBI competition based Western blotting analysis; format: cell-based; settings: dose 1-100 µM, time 3.5 hrs
Tubulin (Homo sapiens) [3] = biological target: T1, Tubulin (Homo sapiens); assay: Inhibition of tubulin polymerization in human HT-29 cells assessed as reduction in beta-tubulin expression 50 to 200 nM incubated for 24 hrs by Western blot analysis; format: cell-based; settings: dose 50-200 nM
Tubulin (Homo sapiens) [4] = biological target: T1, Tubulin (Homo sapiens); assay: Inhibition of tubulin polymerization in human HT-29 cells assessed as downregulation of acetylated alpha-tubulin expression 50 to 200 nM incubated for 24 hrs by Western blot analysis; format: cell-based; settings: dose 50-200 nM
HT-29 [5] = assay: Induction of cell cycle arrest in human HT-29 cells assessed as accumulation of cells at G1 phase at 50 nM incubated for 24 hrs by flow cytometry analysis (reference value: 67.6%); format: functional
HT-29 [6] = assay: Induction of cell cycle arrest in human HT-29 cells assessed as accumulation of cells at G1 phase at 100 nM incubated for 24 hrs by flow cytometry analysis (reference value: 67.6%); format: functional
HT-29 [7] = assay: Induction of cell cycle arrest in human HT-29 cells assessed as accumulation of cells at S phase at 200 nM incubated for 24 hrs by flow cytometry analysis (reference value: 20.8 %); format: functional
HT-29 [8] = assay: Induction of cell cycle arrest in human HT-29 cells assessed as accumulation of cells at G2 phase at 50 nM incubated for 24 hrs by flow cytometry analysis (reference value: 13 %); format: functional
HT-29 [9] = assay: Induction of cell cycle arrest in human HT-29 cells assessed as increase in cyclin-B1 expression incubated for 24 hrs by Western blot analysis; format: functional, cell-based; settings: dose 50-200 nM
HT-29 [10] = assay: Induction of cell cycle arrest in human HT-29 cells assessed as effect on CDC2 expression at 50 to 200 nM incubated for 24 hrs by Western blot analysis; format: functional, cell-based; settings: dose 50-200 nM
HT-29 [11] = assay: Induction of apoptosis in human HT-29 cells assessed as early apoptotic cells at 50 nM incubated for 24 hrs by FITC/PI staining based flow cytometry analysis (reference value: 8.14%); format: functional
HT-29 [12] = assay: Induction of apoptosis in human HT-29 cells assessed as necrotic cells at 50 nM incubated for 24 hrs by FITC/PI staining based flow cytometry analysis (reference value: 0.017 %); format: functional
HT-29 [13] = assay: Induction of apoptosis in human HT-29 cells assessed as late apoptotic cells at 100 nM incubated for 24 hrs by FITC/PI staining based flow cytometry analysis (reference value: 0.20%); format: functional
HT-29 [14] = assay: Induction of apoptosis in human HT-29 cells assessed as early apoptotic cells at 200 nM incubated for 24 hrs by FITC/PI staining based flow cytometry analysis (reference value: 8.14%); format: functional
HT-29 [15] = assay: Induction of apoptosis in human HT-29 cells assessed as upregulation of cleaved caspase 3 level at 50 to 200 nM incubated for 24 hrs by Western blot analysis; format: functional, cell-based; settings: dose 50-200 nM
HT-29 [16] = assay: Induction of apoptosis in human HT-29 cells assessed as upregulation of cleaved PARP level at 50 to 200 nM incubated for 24 hrs by Western blot analysis; format: functional, cell-based; settings: dose 50-200 nM
HT-29 [17] = assay: Induction of apoptosis in human HT-29 cells assessed as downregulation of Bcl-2 level at 50 to 200 nM incubated for 24 hrs by Western blot analysis; format: functional, cell-based; settings: dose 50-200 nM
Mitochondrial membrane = assay: Induction of mitochondrial membrane potential loss in human HT-29 cells assessed as increase in green fluorescence at 50 to 100 nM incubated for 24 hrs by JC-1 staining based confocal microscopic analysis; format: cell membranes; settings: dose 50-100 nM
HT-29 [18] = assay: Induction of ROS accumulation in human HT-29 cells incubated for 24 hrs by DCFH-DA staining based microscopic analysis; format: functional, cell-based; settings: dose 50-100 nM
HT-29 [19] = assay: Antitumor activity against human HT-29 cells xenografted in BALB/c mouse assessed as tumor growth inhibition at 20 mg/kg, iv measured after 21 days; format: functional; settings: HT-29, 504 h, time 21 day, read-out: TGI
HT-29 [20] = assay: Antitumor activity against human HT-29 cells xenografted in BALB/c mouse assessed as reduction in Ki67 expression at 10 to 40 mg/kg, iv measured after 21 days by immunohistochemical analysis; format: functional, organism-based; settings: dose 10-40 mg/kg, time 21.0 day
HT-29 [21] = assay: Antitumor activity against human HT-29 cells xenografted in BALB/c mouse assessed as reduction in CD31 expression at 10 to 40 mg/kg, iv measured after 21 days by immunohistochemical analysis; format: functional, organism-based; settings: dose 10-40 mg/kg, time 21.0 day
[22] = Toxicity in BALB/c mouse assessed as liver damage at 10 to 40 mg/kg, iv measured after 21 days by H and E staining based analysis; format: organism-based; settings: in vivo, 504 h, dose 10-40 mg/kg, time 21 day
[23] = Toxicity in BALB/c mouse assessed as spleen damage at 10 to 40 mg/kg, iv measured after 21 days by H and E staining based analysis; format: organism-based; settings: in vivo, 504 h, dose 10-40 mg/kg, time 21 day
[24] = Toxicity in BALB/c mouse assessed as lung damage at 10 to 40 mg/kg, iv measured after 21 days by H and E staining based analysis; format: organism-based; settings: in vivo, 504 h, dose 10-40 mg/kg, time 21 day
[25] = Toxicity in BALB/c mouse assessed as kidney damage at 10 to 40 mg/kg, iv measured after 21 days by H and E staining based analysis; format: organism-based; settings: in vivo, 504 h, dose 10-40 mg/kg, time 21 day
[26] = Toxicity in ICR mouse assessed as effect on AST level at 10 to 40 mg/kg, iv administered every 2 days and measured after 14 days; format: organism-based; settings: in vivo, 336 h, dose 10-40 mg/kg, time 14 day
[27] = Toxicity in ICR mouse assessed as effect on ALT level at 10 to 40 mg/kg, iv administered every 2 days and measured after 14 days; format: organism-based; settings: in vivo, 336 h, dose 10-40 mg/kg, time 14 day
[28] = Toxicity in ICR mouse assessed as effect on CREA level at 10 to 40 mg/kg, iv administered every 2 days and measured after 14 days; format: organism-based; settings: in vivo, 336 h, dose 10-40 mg/kg, time 14 day
[29] = Toxicity in ICR mouse assessed as effect on LDH level at 10 to 40 mg/kg, iv administered every 2 days and measured after 14 days; format: organism-based; settings: in vivo, 336 h, dose 10-40 mg/kg, time 14 day
[30] = Toxicity in ICR mouse assessed as effect on hemoglobin level at 10 to 40 mg/kg, iv administered every 2 days and measured after 14 days; format: organism-based; settings: in vivo, 336 h, dose 10-40 mg/kg, time 14 day
[31] = AUC (0 to t) in Sprague-Dawley rat at 5 mg/kg, iv measured upto 24 hrs by HPLC-MS analysis; format: ADME, organism-based; settings: in vivo
[32] = MRT (0 to t) in Sprague-Dawley rat at 5 mg/kg, iv measured upto 24 hrs by HPLC-MS analysis; format: ADME, organism-based; settings: in vivo
MDA-MB-231 = assay: cells; settings: Homo sapiens, MDA-MB-231, 72 h
Description: Antiproliferative activity against human MDA-MB-231 cells assessed as cell viability incubated for 72 hrs by MTT assay

inhibition (Tubulin (Homo sapiens) [2]): Active
inhibition (Tubulin (Homo sapiens) [3]): Active
inhibition (Tubulin (Homo sapiens) [4]): Active
Activity (Mitochondrial membrane): Active
AUC(0-t) at 24 h [31]: 3820 ng·h/mL
MRT last at 24 h [32]: 46.8 min
IC50 (MDA-MB-231): 440 nM
Structure (SMILES): COc1ccc(N(C)c2nc(/C=C/c3cccc(OC)c3)nc3ccccc23)cc1
IC50 (RKO): 100 nM
Ratio IC50 [1]: 2.53
Activity (HT-29 [5]): 64.6%
Activity (HT-29 [6]): 35.6%
Activity (HT-29 [7]): 7.31%
Activity (HT-29 [8]): 17.8%
Activity (HT-29 [9]): Dose-dependent-effect
Activity (HT-29 [10]): inactive
Activity (HT-29 [11]): 12.7%
Activity (HT-29 [12]): 1.79%
Activity (HT-29 [13]): 27.2%
Activity (HT-29 [14]): 18.2%
Activity (HT-29 [15]): Active
Activity (HT-29 [16]): Active
Activity (HT-29 [17]): Active
Activity (HT-29 [18]): Dose-dependent-effect
inhibition in vivo at 20 mg/kg (HT-29 [19]): 64.7%
Activity (HT-29 [20]): Active
Activity (HT-29 [21]): Active
Activity [22]: Non-toxic
Activity [23]: Non-toxic
Activity [24]: Non-toxic
Activity [25]: Non-toxic
Activity [26]: Non-toxic
Activity [27]: Non-toxic
Activity [28]: Non-toxic
Activity [29]: Non-toxic
Activity [30]: Non-toxic
